Assay results from patent publication US8987254B2, “Tetrahydropyrrolothiazine compounds” (Eli Lilly and Company, priority 2013, dated 2015).
Counter-ions that a name gives are not always drawn. Like-named read-outs stand apart in the source and are kept apart here.

Legend:
PDAPP mice = experiment: In Vivo Inhibition of Beta-Secretase (brain Abeta 1-x reduction); parameters: species or system mouse; conditions: for Abeta 1-x peptide levels reduced in brain cortex / Abeta 1-x peptide levels reduced in brain hippocampus: 3 hours after administration, compared to vehicle-treated mice
Source text: Several animal models, including mouse, guinea pig, dog, and monkey, may be used to screen for inhibition of beta-secretase activity in vivo following compound treatment. Animals used in this invention can be wild type, transgenic, or gene knockout animals. For example, the PDAPP mouse model, prepared as described in Games et al., Nature 373, 523-527 (1995), and other non-transgenic or gene knockout animals are useful to analyze in vivo inhibition of Abeta and sAPPbeta production in the presence of inhibitory compounds. Generally, 2 to 12 month old PDAPP mice, gene knockout mice or non-transgenic animals are administered compound formulated in vehicles, such as corn oil, cyclodextran, phosphate buffers, PHARMASOLVE®, or other suitable vehicles. One to twenty-four hours following the administration of compound, animals are sacrificed, and brains as well as cerebrospinal fluid and plasma are removed for analysis of Abetas, C99, and sAPP fragments. (See May, et al., Journal of Neuroscience, 31, 16507-16516 (2011)).
For standard in vivo pharmacology studies, animals are dosed with various concentrations of compound and compared to a vehicle-treated control group dosed at the same time. For some time course studies, brain tissue, plasma, or cerebrospinal fluid is obtained from selected animals, beginning at time 0 to establish a baseline. Compound or appropriate vehicle is administered to other groups and sacrificed at various times after dosing. Brain tissue, plasma, or cerebrospinal fluid is obtained from selected animals and analyzed for the presence of APP cleavage products, including Abeta peptides, sAPPbeta, and other APP fragments, for example, by specific sandwich ELISA assays. At the end of the test period, animals are sacrificed and brain tissues, plasma, or cerebrospinal fluid are analyzed for the presence of Abeta peptides, C99, and sAPPbeta, as appropriate. Brain tissues of APP transgenic animals may also be analyzed for the amount of beta-amyloid plaques following compound treatment. “Abeta 1-x peptide” as used herein refers to the sum of Abeta species that begin with residue 1 and ending with a C-terminus greater than residue 28. This detects the majority of Abeta species and is often called “total Abeta”.

HEK293Swe cells = experiment: HEK293Swe Whole Cell Assay (Abeta ELISA); assay type: cell-based; conditions: Homo sapiens
Method: (§1) For in vitro enzymatic and cellular assays, test compounds are prepared in DMSO to make up a 10 mM stock solution. The stock solution is serially diluted in DMSO to obtain a ten-point dilution curve with final compound concentrations ranging from […] to 0.05 nM in a 96-well round-bottom plate before conducting the in vitro enzymatic and whole cell assays.
In vitro Abeta reduction assays have been described in the literature (See Dovey, et al., Journal of Neurochemistry, 76, 173-181 (2001); Seubert, et al., Nature, 361, 260 (1993); and Johnson-Wood, et al., Proc. Natl. Acad. Sci. USA, 94, 1550-1555 (1997)).
At the end of the incubation, conditioned media are analyzed for evidence of beta-secretase activity, for example, by analysis of Abeta peptides. Total Abeta peptides (Abeta 1-x) are measured by a sandwich ELISA, using monoclonal 266 as a capture antibody and biotinylated 3D6 as reporting antibody. Alternatively, Abeta 1-40 and Abeta 1-42 peptides are measured by a sandwich ELISA, using monoclonal 2G3 as a capture antibody for Abeta 1-40, and monoclonal 21F12 as a capture antibody for Abeta 1-42. Both Abeta 1-40 and Abeta 1-42 ELISAs use biotinylated 3D6 as the reporting antibody. The concentration of Abeta released in the conditioned media following the compound treatment corresponds to the activity of BACE1 under such conditions. The 10-point inhibition curve is plotted and fitted with the four-parameter logistic equation to obtain the EC50 and IC50 values for the Abeta-lowering effect.

human BACE1(1-460):Fc = human BACE1(1-460):Fc (Homo sapiens (Human), UniProt P56817); experiment: BACE1 FRET Assay; assay type: biochemical; conditions: purified recombinant huBACE1:Fc, FRET substrate, pH 4.6; Mean ± SEM
human BACE1(1-460):Fc, sequence (P56817 22-460): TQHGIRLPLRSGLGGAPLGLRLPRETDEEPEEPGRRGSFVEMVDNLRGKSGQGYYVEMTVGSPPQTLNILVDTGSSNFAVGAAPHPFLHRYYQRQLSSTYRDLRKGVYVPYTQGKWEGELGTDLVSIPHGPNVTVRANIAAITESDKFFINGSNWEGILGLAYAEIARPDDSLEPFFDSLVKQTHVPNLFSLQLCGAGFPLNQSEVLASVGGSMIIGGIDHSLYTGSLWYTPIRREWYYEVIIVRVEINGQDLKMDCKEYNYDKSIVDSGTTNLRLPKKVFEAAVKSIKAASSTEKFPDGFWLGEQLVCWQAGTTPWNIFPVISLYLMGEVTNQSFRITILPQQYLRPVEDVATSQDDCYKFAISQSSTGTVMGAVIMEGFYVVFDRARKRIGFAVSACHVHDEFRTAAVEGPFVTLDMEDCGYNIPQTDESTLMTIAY
Method: as §1
Human BACE1 (accession number: AF190725) is cloned from total brain cDNA by RT-PCR. The nucleotide sequences corresponding to amino acid sequences #1 to 460 are inserted into the cDNA encoding human IgG1 (Fc) polypeptide (Vassar et al. 1999). This fusion protein of BACE1(1-460) and human Fc, named huBACE1:Fc, is constructed into the pJB02 vector. Human BACE1(1-460):Fc (huBACE1:Fc) is transiently expressed in HEK293 cells. 250 μg cDNA of each construct is mixed with Fugene 6 and added to 1 liter HEK293 cells. Four days after the transfection, conditioned media are harvested for purification.
huBACE1:Fc is purified by Protein A chromatography. The enzyme is stored at −80° C. in small aliquots.
Serial dilutions of test compounds are prepared as described above. Compounds are further diluted 20× in KH2PO4 buffer. […] The content is mixed well on a plate shaker for 10 minutes. Fifteen μL of two hundred pM human BACE1(1-460):Fc (See Vasser, et al., Science, 286, 735-741 (1999)) in the KH2PO4 buffer is added to the plate containing substrate and test compounds to initiate the reaction. The RFU of the mixture at time 0 is recorded at excitation wavelength 355 nm and emission wavelength 460 nm, after brief mixing on a plate shaker. The reaction plate is covered with aluminum foil and kept in a dark humidified oven at room temperature for 16 to 24 h. The RFU at the end of incubation is recorded with the same excitation and emission settings used at time 0. The difference of the RFU at time 0 and the end of incubation is representative of the activity of BACE1 under the compound treatment. RFU differences are plotted versus inhibitor concentration and a curve is fitted with a four-parameter logistic equation to obtain the EC50 and IC50 values. (See Sinha, et al., Nature, 402, 537-540 […]).

[1] = system: primary cortical neurons from PDAPP transgenic embryonic mice; experiment: PDAPP Primary Neuronal Assay (Abeta ELISA); assay type: cell-based; conditions: Mus musculus, Primary cortical neuron, 24 h
Method: as §1
A confirmatory whole cell assay is also run in primary neuronal cultures generated from PDAPP transgenic embryonic mice. Primary cortical neurons are prepared from Embryonic Day 16 PDAPP embryos and cultured in 96 well plates (15×10^4 cells/well in DMEM/F12 (1:1) plus 10% FBS). After 2 days in vitro, culture media is replaced with serum free DMEM/F12 (1:1) containing B27 supplement and 2 μM (final) of Ara-C (Sigma, C1768). At day 5 in vitro, neurons are incubated at 37° C. for 24 h in the presence/absence of inhibitors (diluted in DMSO) at the desired concentration. At the end of the incubation, conditioned media are analyzed for evidence of beta-secretase activity, for example, by analysis of Abeta peptides. Total Abeta peptides (Abeta 1-x) are measured by a sandwich ELISA, using monoclonal 266 as a capture antibody and biotinylated 3D6 as reporting antibody. Alternatively, Abeta 1-40 and Abeta 1-42 peptides are measured by a sandwich ELISA, using monoclonal 2G3 as a capture antibody for Abeta 1-40, and monoclonal 21F12 as a capture antibody for Abeta 1-42. Both Abeta 1-40 and Abeta 1-42 ELISAs use biotinylated 3D6 as the reporting antibody. The concentration of Abeta released in the conditioned media following the compound treatment corresponds to the activity of BACE1 under such conditions. The 10-point inhibition curve is plotted and fitted with the four-parameter logistic equation to obtain the EC50 and IC50 values for the Abeta-lowering effect.

[2] = HEK293, Abeta 1-40 in conditioned media, read-out: HEK 293 Swe A-beta (1-40) ELISA IC50
[3] = HEK293, Abeta 1-42 in conditioned media, read-out: HEK 293 Swe A-beta (1-42) ELISA IC50
[4] = Abeta 1-40, Mean ± SEM, read-out: PDAPP Neuron A-beta (1-40) ELISA IC50
[5] = Abeta 1-42, Mean ± SEM, read-out: PDAPP Neuron A-beta (1-42) ELISA IC50

| CNS penetration (PDAPP mice) | IC50 (human BACE1(1-460):Fc) [nM] | SMILES | Abeta 1-x peptide levels reduced in brain cortex (PDAPP mice; 1 mg/kg oral dose) | Abeta 1-x peptide levels reduced in brain hippocampus (PDAPP mice; 1 mg/kg oral dose) | Abeta 1-x peptide levels reduced in brain cortex (PDAPP mice; 3 mg/kg oral dose) [%] | Abeta 1-x peptide levels reduced in brain hippocampus (PDAPP mice; 3 mg/kg oral dose) [%] | Abeta 1-x peptide levels reduced in brain cortex (PDAPP mice; 10 mg/kg oral dose) [%] | Abeta 1-x peptide levels reduced in brain hippocampus (PDAPP mice; 10 mg/kg oral dose) [%] | IC50 (HEK293Swe cells; [2]) [nM] | IC50 (HEK293Swe cells; [3]) [nM] | IC50 [1, 4] [nM] | IC50 [1, 5] [nM] |
| --- | --- | --- | --- | --- | --- | --- | --- | --- | --- | --- | --- | --- |
| demonstrate CNS penetration | 0.61 | Cl.NC1=N[C@@]2(c3cccc(NC(=O)c4ccc(F)cn4)c3)CN(c3ncc(F)cn3)C[C@H]2CS1 [Example 1, N-{3-[(4aR,7aS)-2-Amino-6-(5-fluoropyrimidin-2-yl)-4a,5,6,7-tetrahydropyrrolo[3,4-d][1,3]thiazin-7a(4H)-yl]phenyl}-5-fluoropyridine-2-carboxamide hydrochloride] | approximately 43% | approximately 34% | ~59 | ~48 | ~66 | ~53 | 0.619 | 0.437 | 0.487 | 0.591 |
| – | 0.482 | COc1cnc(C(=O)Nc2cccc([C@]34CN(c5ncc(F)cn5)C[C@H]3CSC(N)=N4)c2)cn1 [Example 2, N-{3-[(4aR,7aS)-2-Amino-6-(5-fluoropyrimidin-2-yl)-4a,5,6,7-tetrahydropyrrolo[3,4-d][1,3]thiazin-7a(4H)-yl]phenyl}-5-methoxypyrazine-2-carboxamide hydrochloride] | – | – | – | – | – | – | 0.324 | 0.289 | 0.244 | 1.22 |
| demonstrate CNS penetration | – | Cl.NC1=N[C@@]2(c3cc(NC(=O)c4ccc(F)cn4)ccc3F)CN(c3ncc(F)cn3)C[C@H]2CS1 [Example 3, N-[3-[(4aR,7aS)-2-Amino-6-(5-fluoropyrimidin-2-yl)-4,4a,5,7-tetrahydropyrrolo[3,4-d][1,3]thiazin-7a-yl]-4-fluoro-phenyl]-5-fluoro-pyridine-2-carboxamide hydrochloride] | approximately 34% | approximately 38% | ~53 | ~50 | – | – | 1.26 | 0.299 | 0.309 | 0.184 |
| – | – | COc1cnc(C(=O)Nc2ccc(F)c([C@]34CN(c5ncc(F)cn5)C[C@H]3CSC(N)=N4)c2)cn1 [Example 4, N-[3-[(4aR,7aS)-2-Amino-6-(5-fluoropyrimidin-2-yl)-4,4a,5,7-tetrahydropyrrolo[3,4-d][1,3]thiazin-7a-yl]-4-fluoro-phenyl]-5-methoxy-pyrazine-2-carboxamide hydrochloride] | – | – | – | – | – | – | – | – | 0.134 | 0.131 |
| – | 0.45 | N#Cc1ccc(C(=O)Nc2cccc([C@]34CN(c5ncc(F)cn5)C[C@H]3CSC(N)=N4)c2)nc1 [Example 5, N-[3-[(4aR,7aS)-2-Amino-6-(5-fluoropyrimidin-2-yl)-4,4a,5,7-tetrahydropyrrolo[3,4-d][1,3]thiazin-7a-yl]phenyl]-5-cyano-pyridine-2-carboxamide hydrochloride] | – | – | – | – | – | – | 0.0887 | 0.0785 | 0.132 | 0.0813 |
| – | 0.739 | NC1=N[C@@]2(c3cccc(NC(=O)c4ncc(F)cc4F)c3)CN(c3ncc(F)cn3)C[C@H]2CS1 [Example 6, N-[3-[(4aR,7aS)-2-Amino-6-(5-fluoropyrimidin-2-yl)-4,4a,5,7-tetrahydropyrrolo[3,4-d][1,3]thiazin-7a-yl]phenyl]-3,5-difluoro-pyridine-2-carboxamide hydrochloride] | – | – | – | – | – | – | 0.22 | 0.211 | 0.279 | 0.308 |
| – | 0.358 | N#Cc1ccc(C(=O)Nc2ccc(F)c([C@]34CN(c5ncc(F)cn5)C[C@H]3CSC(N)=N4)c2)nc1 [Example 7, N-[3-[(4aR,7aS)-2-Amino-6-(5-fluoropyrimidin-2-yl)-4,4a,5,7-tetrahydropyrrolo[3,4-d][1,3]thiazin-7a-yl]-4-fluoro-phenyl]-5-cyano-pyridine-2-carboxamide hydrochloride] | – | – | – | – | – | – | – | – | 0.0873 | 0.0649 |
| – | – | NC1=N[C@@]2(c3cc(NC(=O)c4ncc(F)cc4F)ccc3F)CN(c3ncc(F)cn3)C[C@H]2CS1 [Example 8, N-[3-[(4aR,7aS)-2-Amino-6-(5-fluoropyrimidin-2-yl)-4,4a,5,7-tetrahydropyrrolo[3,4-d][1,3]thiazin-7a-yl]-4-fluoro-phenyl]-3,5-difluoro-pyridine-2-carboxamide hydrochloride] | – | – | – | – | – | – | – | – | 0.285 | 0.29 |
